# Test results as given in article PMC4121215, “Cytotoxic Constituents from the Rhizomes of Curcuma zedoaria” (The Scientific World Journal, 2014).
# System: MCF-7 (breast cancer)
# Test: cells
# Format: cell-based
# Conditions: Homo sapiens, MCF7; isolated compounds; MTT, 72 h; mean ± SD of three replicates
# Experimental: (§1) The human cell lines MCF-7 (breast cancer), Ca Ski (cervical cancer), and HT-29 (colon cancer) were cultured as monolayer in RPMI 1640 growth media. HUVEC (human umbilical vein endothelial cells) and PC-3 (prostate cancer) cells were cultured in DMEM. All cells were purchased from the American Tissue Culture Collection (ATCC, USA) except for human umbilical vein endothelial cells (HUVEC) which were obtained from ScienCell Research Laboratories (Carlsbad, CA). All the media were supplemented with 10% v/v foetal bovine serum (FBS), 100 μg/mL penicillin/streptomycin, and 50 μg/mL amphotericin B. The cells were cultured in a 5% CO2 incubator at 37°C.
# (§2) Cell viability was investigated using 3-(4, 5-dimethylthiazol-2-yl)-2, 5-diphenyltetrazolium bromide (MTT) assay. Cells were detached from the […] tissue culture flask when it achieved 80% confluency. The detached cells were pellet by centrifugation (1,000 rpm; 5 minutes). Cells (3.0 × 10^4 cells/mL) were seeded onto a 96-well microtiter plate (Nunc). The cells were incubated at 37°C CO2 incubator for 24 h to give adherent cells. The test compounds (1–100 μg/mL) were added onto the 96-well microtiter plate containing adherent cells. The untreated cells were incubated in 10% media containing 0.5% DMSO (without addition of any test compounds/extracts). This mixture was regarded as the negative control whereas doxorubicin as the positive control. The plates were incubated for 72 h at 37°C in a 5% CO2 incubator. After 72 h, the media were removed and 100 μL of fresh medium and 20 μL of MTT (Sigma, filter sterile, 5 mg/mL) were added to each well and further incubated for 4 hours (37°C) after which the media were substituted with 150 μL DMSO. The 96-well microtiter plates were then agitated at room temperature onto an incubator shaker to dissolve the formazan crystals. The absorbance (A) of the content of the plates was measured at 540 nm using a microplate reader. The percentage of inhibition of each test sample was calculated according to the following formula: Percentage of inhibition (%) = (A control − A sample)/A control × 100%. The average of three replicates was then obtained. The IC50 for each extract was extrapolated from the graphs of the percentage inhibition versus concentration of test agents. Cytotoxicity of each test agent is expressed as IC50 value. The IC50 value is the concentration of test agents that cause 50% inhibition or cell death, averaged from the three experiments. The selectivity index (SI) was also calculated as described by using the ratio between IC50 of the extract or compounds on normal cell lines (HUVEC) and IC50 of the tested extract or compounds on cancerous cell lines. Selectivity index (SI) values equal or greater than three were considered to have a high selectivity towards cancerous cells. An SI value denotes the selectivity of the sample to the tested cell lines.
row,SMILES,IC50 [µg/mL]
1,"CC1=CC2(O)OC3(CC2=C(C)C)C(C)CCC13 (stereo not drawn) [Compound 10, 9-isopropylidene-2,6-dimethyl-11-oxatricyclo[6.2.1.0^1,5]undec-6-en-8-ol]",> 100
2,"CC1=CCCC2(C)OC2C(=O)c2c(C)coc2C1 (stereo not drawn) [Compound 9, zederone]",> 100
3,"C=C1CC[C@H]2C(C)(C)CCC[C@]2(C)[C@H]1C/C=C(/C=O)CC(OC)OC [Compound 13, calcaratarin A]",62.5 ± 4.8
4,"CC1=CC2C(=C(C)C)C(=O)C=C(C)C2CC1 (stereo not drawn) [Compound 4, comosone II]",> 100
5,"CC(C)=C1CC(=O)[C@@H](C)CC/C=C(\C)CC1=O [Compound 2, dehydrocurdione]",33 ± 1.1

# Same assay, conditions: isolated compounds; IC50 HUVEC / IC50 MCF-7
row,SMILES,SI (selectivity index) MCF-7
1,"CC1=CC2(O)OC3(CC2=C(C)C)C(C)CCC13 (stereo not drawn) [Compound 10, 9-isopropylidene-2,6-dimethyl-11-oxatricyclo[6.2.1.0^1,5]undec-6-en-8-ol]",< 0.7
2,"CC1=CCCC2(C)OC2C(=O)c2c(C)coc2C1 (stereo not drawn) [Compound 9, zederone]",0.4
3,"C=C1CC[C@H]2C(C)(C)CCC[C@]2(C)[C@H]1C/C=C(/C=O)CC(OC)OC [Compound 13, calcaratarin A]",0.8
4,"CC(C)=C1CC(=O)[C@@H](C)CC/C=C(\C)CC1=O [Compound 2, dehydrocurdione]",0.7

# System: Ca Ski (cervical cancer)
# Test: cells
# Format: cell-based
# Conditions: Homo sapiens, Ca-Ski; isolated compounds; MTT, 72 h; mean ± SD of three replicates
# Experimental: as §1, §2
row,SMILES,IC50 [µg/mL]
1,"CC1=CC2(O)OC3(CC2=C(C)C)C(C)CCC13 (stereo not drawn) [Compound 10, 9-isopropylidene-2,6-dimethyl-11-oxatricyclo[6.2.1.0^1,5]undec-6-en-8-ol]",> 100
2,"CC1=CCCC2(C)OC2C(=O)c2c(C)coc2C1 (stereo not drawn) [Compound 9, zederone]",> 100
3,"CC1=CC2C(=C(C)C)C(=O)C=C(C)C2CC1 (stereo not drawn) [Compound 4, comosone II]",76 ± 1.2
4,"CC(C)=C1CC(=O)[C@@H](C)CC/C=C(\C)CC1=O [Compound 2, dehydrocurdione]",21.7 ± 1.1

# Same assay, conditions: isolated compounds; IC50 HUVEC / IC50 Ca Ski
row,SMILES,SI (selectivity index) Ca Ski
1,"CC1=CC2(O)OC3(CC2=C(C)C)C(C)CCC13 (stereo not drawn) [Compound 10, 9-isopropylidene-2,6-dimethyl-11-oxatricyclo[6.2.1.0^1,5]undec-6-en-8-ol]",< 0.7
2,"CC1=CCCC2(C)OC2C(=O)c2c(C)coc2C1 (stereo not drawn) [Compound 9, zederone]",0.4
3,"CC(C)=C1CC(=O)[C@@H](C)CC/C=C(\C)CC1=O [Compound 2, dehydrocurdione]",1.1

# System: HUVEC (human umbilical vein endothelial cells)
# Test: cells
# Format: cell-based
# Conditions: Homo sapiens, HUVEC; isolated compounds; MTT, 72 h; normal cells
# Experimental: as §1, §2
row,SMILES,IC50 [µg/mL]
1,"CC1=CC2(O)OC3(CC2=C(C)C)C(C)CCC13 (stereo not drawn) [Compound 10, 9-isopropylidene-2,6-dimethyl-11-oxatricyclo[6.2.1.0^1,5]undec-6-en-8-ol]",71.7 ± 6.1
2,"CC1=CCCC2(C)OC2C(=O)c2c(C)coc2C1 (stereo not drawn) [Compound 9, zederone]",42.1 ± 2.7
3,"C=C1CC[C@H]2C(C)(C)CCC[C@]2(C)[C@H]1C/C=C(/C=O)CC(OC)OC [Compound 13, calcaratarin A]",47.3 ± 4.2
4,"CC(C)=C1CC(=O)[C@@H](C)CC/C=C(\C)CC1=O [Compound 2, dehydrocurdione]",24 ± 2.1

# System: HT-29 (colon cancer)
# Test: MTT cytotoxicity assay, HT-29
# Format: cell-based
# Conditions: Homo sapiens, HT-29; isolated compounds; MTT, 72 h; mean ± SD of three replicates
# Experimental: as §1, §2
row,SMILES,IC50 [µg/mL]
1,"CC1=CCCC2(C)OC2C(=O)c2c(C)coc2C1 (stereo not drawn) [Compound 9, zederone]",19.1 ± 2.5
2,"C=C1CC[C@H]2C(C)(C)CCC[C@]2(C)[C@H]1C/C=C(/C=O)CC(OC)OC [Compound 13, calcaratarin A]",48.3 ± 5.1
3,"CC(C)=C1CC(=O)[C@@H](C)CC/C=C(\C)CC1=O [Compound 2, dehydrocurdione]",22.7 ± 2.4

# Same assay, conditions: MTT assay
row,SMILES,antiproliferative/cytotoxic activity against HT-29 (in words)
1,"CC1=CCCC2(C)OC2C(=O)c2c(C)coc2C1 (stereo not drawn) [Compound 9, zederone]",moderate inhibitory activity
2,"CC(C)=C1CC(=O)[C@@H](C)CC/C=C(\C)CC1=O [Compound 2, dehydrocurdione]",moderate inhibitory activity

# Same assay, conditions: isolated compounds; IC50 HUVEC / IC50 HT-29
row,SMILES,SI (selectivity index) HT-29
1,"CC1=CCCC2(C)OC2C(=O)c2c(C)coc2C1 (stereo not drawn) [Compound 9, zederone]",2.2
2,"C=C1CC[C@H]2C(C)(C)CCC[C@]2(C)[C@H]1C/C=C(/C=O)CC(OC)OC [Compound 13, calcaratarin A]",1.0
3,"CC(C)=C1CC(=O)[C@@H](C)CC/C=C(\C)CC1=O [Compound 2, dehydrocurdione]",1.1

# System: PC-3 (prostate cancer)
# Test: MTT cytotoxicity assay, PC-3
# Format: cell-based
# Conditions: Homo sapiens; isolated compounds; MTT, 72 h; mean ± SD of three replicates
# Experimental: as §1, §2
row,SMILES,IC50 [µg/mL]
1,"CC1=CCCC2(C)OC2C(=O)c2c(C)coc2C1 (stereo not drawn) [Compound 9, zederone]",27 ± 1.9
2,"C=C1CC[C@H]2C(C)(C)CCC[C@]2(C)[C@H]1C/C=C(/C=O)CC(OC)OC [Compound 13, calcaratarin A]",41.7 ± 3.4
3,"CC(C)=C1CC(=O)[C@@H](C)CC/C=C(\C)CC1=O [Compound 2, dehydrocurdione]",19.1 ± 2.8

# Same assay, conditions: MTT assay
row,SMILES,antiproliferative/cytotoxic activity against PC-3 (in words)
1,"CC1=CCCC2(C)OC2C(=O)c2c(C)coc2C1 (stereo not drawn) [Compound 9, zederone]",moderate inhibitory activity
2,"CC(C)=C1CC(=O)[C@@H](C)CC/C=C(\C)CC1=O [Compound 2, dehydrocurdione]",moderate inhibitory activity

# Same assay, conditions: isolated compounds; IC50 HUVEC / IC50 PC-3
row,SMILES,SI (selectivity index) PC-3
1,"CC1=CCCC2(C)OC2C(=O)c2c(C)coc2C1 (stereo not drawn) [Compound 9, zederone]",1.6
2,"C=C1CC[C@H]2C(C)(C)CCC[C@]2(C)[C@H]1C/C=C(/C=O)CC(OC)OC [Compound 13, calcaratarin A]",1.1
3,"CC(C)=C1CC(=O)[C@@H](C)CC/C=C(\C)CC1=O [Compound 2, dehydrocurdione]",1.3
